Patent publication US20210070748A1, “INHIBITORS OF BRUTONS TYROSINE KINASE” (Pharmacyclics LLC, priority 2015, published 2021)

Assays:
Assay type in all cases: biochemical
[1] = molecular target: LCK (Homo sapiens, UniProt P06239); experiment: Inhibition of a panel of kinases, in vitro HotSpot kinase assay: LCK; settings: Table 15, C compounds; 1 μM ATP; read-out: IC50 LCK
[2] = molecular target: EGFR (Homo sapiens, UniProt P00533); experiment: Inhibition of a panel of kinases, in vitro HotSpot kinase assay: EGFR; settings: Table 15, C compounds; 1 μM ATP
Description: (§1) The degree of inhibition of a panel of kinases is determined using the in vitro HotSpot kinase assay (purified enzymes, ^33P-ATP, an appropriate substrate and 1 μM ATP).

[3] = molecular target: T1, BTK-WT (Homo sapiens, UniProt Q06187); experiment: Btk in vitro inhibitory activity (one of Method A TR-FRET, Method B electrophoretic mobility shift, Method C radiometric filter binding); settings: Table 15, C compounds; read-out: IC50 BTK-WT
T1 construct: purified from insect cells as a full-length construct containing an N-terminal 6X-His tag; His6 (N); made in house; host or cells: insect cells (baculovirus Sf21 in Method B)

[4] = molecular target: SRC (Homo sapiens, UniProt P12931); experiment: Inhibition of a panel of kinases, in vitro HotSpot kinase assay: SRC; settings: Table 15, C compounds; 1 μM ATP
Description: as §1

[5] = molecular target: T2, TEC (Homo sapiens, UniProt P42680); experiment: Inhibition of a panel of kinases, in vitro HotSpot kinase assay: TEC; settings: Table 15, C compounds; 1 μM ATP
T2 sequence (P42680 1-631): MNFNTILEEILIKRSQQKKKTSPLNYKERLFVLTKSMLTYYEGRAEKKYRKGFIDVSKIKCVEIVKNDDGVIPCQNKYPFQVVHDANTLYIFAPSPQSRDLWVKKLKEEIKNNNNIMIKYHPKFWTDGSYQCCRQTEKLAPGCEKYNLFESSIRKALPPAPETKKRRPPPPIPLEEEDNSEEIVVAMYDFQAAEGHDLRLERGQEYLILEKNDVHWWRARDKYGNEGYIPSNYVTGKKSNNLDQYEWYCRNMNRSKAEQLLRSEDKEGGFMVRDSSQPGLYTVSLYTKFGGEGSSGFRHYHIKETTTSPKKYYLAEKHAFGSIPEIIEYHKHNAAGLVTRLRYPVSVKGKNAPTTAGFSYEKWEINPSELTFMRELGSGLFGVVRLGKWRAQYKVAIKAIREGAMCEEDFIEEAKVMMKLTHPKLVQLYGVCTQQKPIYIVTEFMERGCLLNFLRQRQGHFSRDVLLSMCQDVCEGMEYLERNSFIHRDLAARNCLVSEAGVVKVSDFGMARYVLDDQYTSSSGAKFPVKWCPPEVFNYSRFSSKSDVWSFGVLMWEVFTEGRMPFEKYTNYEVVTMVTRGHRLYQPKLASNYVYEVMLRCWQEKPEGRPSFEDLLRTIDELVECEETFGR
Description: as §1

Sequence of EGFR (P00533 25-1210): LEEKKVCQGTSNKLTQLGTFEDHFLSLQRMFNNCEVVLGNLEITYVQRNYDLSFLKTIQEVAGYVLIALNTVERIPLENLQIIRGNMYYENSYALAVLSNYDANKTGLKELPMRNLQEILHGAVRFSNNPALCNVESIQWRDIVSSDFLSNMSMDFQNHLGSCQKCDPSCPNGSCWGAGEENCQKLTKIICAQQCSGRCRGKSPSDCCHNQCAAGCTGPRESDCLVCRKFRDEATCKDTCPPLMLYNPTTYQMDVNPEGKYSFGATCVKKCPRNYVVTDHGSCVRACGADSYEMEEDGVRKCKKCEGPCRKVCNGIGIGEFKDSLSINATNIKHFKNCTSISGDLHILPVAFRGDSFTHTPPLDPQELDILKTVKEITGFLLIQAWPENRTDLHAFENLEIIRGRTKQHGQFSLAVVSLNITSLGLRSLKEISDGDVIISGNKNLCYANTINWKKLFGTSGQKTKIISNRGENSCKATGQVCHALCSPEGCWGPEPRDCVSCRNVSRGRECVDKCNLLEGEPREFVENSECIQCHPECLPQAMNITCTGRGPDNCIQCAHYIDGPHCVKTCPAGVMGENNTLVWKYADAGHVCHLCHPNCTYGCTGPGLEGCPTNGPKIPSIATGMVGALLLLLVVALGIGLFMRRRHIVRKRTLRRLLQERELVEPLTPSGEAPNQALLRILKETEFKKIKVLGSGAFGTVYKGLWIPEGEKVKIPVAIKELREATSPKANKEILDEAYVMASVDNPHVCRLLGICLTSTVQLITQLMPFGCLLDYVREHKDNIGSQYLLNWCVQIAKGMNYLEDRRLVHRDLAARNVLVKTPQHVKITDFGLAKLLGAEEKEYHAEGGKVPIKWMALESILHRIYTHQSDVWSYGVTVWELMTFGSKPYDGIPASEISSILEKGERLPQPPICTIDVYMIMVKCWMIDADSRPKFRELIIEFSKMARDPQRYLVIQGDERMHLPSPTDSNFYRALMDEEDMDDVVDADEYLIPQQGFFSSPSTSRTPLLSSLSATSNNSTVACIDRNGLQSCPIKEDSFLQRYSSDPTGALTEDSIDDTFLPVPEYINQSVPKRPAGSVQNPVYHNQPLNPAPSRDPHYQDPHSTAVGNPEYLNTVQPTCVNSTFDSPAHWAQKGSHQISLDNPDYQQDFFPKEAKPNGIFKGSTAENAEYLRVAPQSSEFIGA
Sequence of LCK (P06239 whole entry): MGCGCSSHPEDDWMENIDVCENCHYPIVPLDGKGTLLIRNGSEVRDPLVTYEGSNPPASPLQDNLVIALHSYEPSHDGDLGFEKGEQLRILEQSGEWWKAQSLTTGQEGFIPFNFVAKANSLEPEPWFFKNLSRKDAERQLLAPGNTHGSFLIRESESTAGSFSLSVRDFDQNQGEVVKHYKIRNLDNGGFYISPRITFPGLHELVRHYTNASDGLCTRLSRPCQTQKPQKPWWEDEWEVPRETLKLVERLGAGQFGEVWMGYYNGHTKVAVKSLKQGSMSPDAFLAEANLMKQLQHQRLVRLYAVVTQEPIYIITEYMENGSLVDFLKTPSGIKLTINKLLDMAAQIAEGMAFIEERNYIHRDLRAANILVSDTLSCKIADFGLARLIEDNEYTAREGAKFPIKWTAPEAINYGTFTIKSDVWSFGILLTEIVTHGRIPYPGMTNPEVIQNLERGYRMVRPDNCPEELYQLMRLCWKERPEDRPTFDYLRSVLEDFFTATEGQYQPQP
T1 sequence (Q06187 whole entry): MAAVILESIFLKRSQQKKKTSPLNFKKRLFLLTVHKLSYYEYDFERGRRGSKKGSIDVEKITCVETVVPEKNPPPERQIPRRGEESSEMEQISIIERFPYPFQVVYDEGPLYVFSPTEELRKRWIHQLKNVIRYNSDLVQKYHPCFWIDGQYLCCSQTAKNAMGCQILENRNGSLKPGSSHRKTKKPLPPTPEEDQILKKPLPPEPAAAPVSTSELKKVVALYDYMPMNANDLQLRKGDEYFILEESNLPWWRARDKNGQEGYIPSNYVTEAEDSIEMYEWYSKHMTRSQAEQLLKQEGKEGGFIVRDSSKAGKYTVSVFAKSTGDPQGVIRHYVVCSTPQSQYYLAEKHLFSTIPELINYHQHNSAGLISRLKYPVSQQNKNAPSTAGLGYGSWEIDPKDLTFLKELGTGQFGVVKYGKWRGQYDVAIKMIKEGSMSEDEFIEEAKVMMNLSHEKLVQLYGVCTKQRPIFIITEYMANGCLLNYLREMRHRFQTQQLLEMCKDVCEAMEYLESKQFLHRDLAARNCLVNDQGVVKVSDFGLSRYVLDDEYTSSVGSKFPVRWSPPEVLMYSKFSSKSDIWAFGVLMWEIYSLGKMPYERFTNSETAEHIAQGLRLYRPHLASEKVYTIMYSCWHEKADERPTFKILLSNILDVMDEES
Sequence of SRC (P12931 whole entry): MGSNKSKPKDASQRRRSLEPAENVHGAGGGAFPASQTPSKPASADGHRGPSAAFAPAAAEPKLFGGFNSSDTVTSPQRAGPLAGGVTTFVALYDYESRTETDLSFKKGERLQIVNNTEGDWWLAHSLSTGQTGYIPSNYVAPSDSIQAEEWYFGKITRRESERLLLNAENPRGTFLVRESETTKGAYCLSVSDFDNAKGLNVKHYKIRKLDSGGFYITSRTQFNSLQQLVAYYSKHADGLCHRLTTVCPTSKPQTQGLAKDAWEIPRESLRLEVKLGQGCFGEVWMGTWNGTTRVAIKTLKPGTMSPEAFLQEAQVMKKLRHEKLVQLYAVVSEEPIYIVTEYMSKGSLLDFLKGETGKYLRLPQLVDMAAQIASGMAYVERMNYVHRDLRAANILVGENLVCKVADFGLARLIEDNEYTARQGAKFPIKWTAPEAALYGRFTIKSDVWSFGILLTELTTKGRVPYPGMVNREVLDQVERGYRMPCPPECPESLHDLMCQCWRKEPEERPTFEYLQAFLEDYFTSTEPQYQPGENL

Structure (SMILES) | IC50 [1] | IC50 [2] | IC50 [3] | IC50 [4] | IC50 [5]
C=CC(=O)N1CCC[C@@H](Nc2nnc(C(N)=O)c(Nc3ccc(C4CCN(C(=O)CC)CC4)cc3)n2)C1 [Example C-57, (R)-3-(1-acryloylpiperidin-3-ylamino)-5-(4-(1-propionylpiperidin-4-yl)phenylamino)-1,2,4-triazine-6-carboxamide] | 10 to 100 nM | ≤ 10 nM | ≤ 10 nM | 10 to 100 nM | ≤ 10 nM
C=CC(=O)N1CCC[C@@H](Nc2cnc(C(N)=O)c(Nc3ccc(C4CCN(C5CCCC5)CC4)cc3)n2)C1 [Example C-84, (R)-5-(1-acryloylpiperidin-3-ylamino)-3-(4-(1-cyclopentylpiperidin-4-yl)phenylamino)pyrazine-2-carboxamide] | 10 to 100 nM | ≤ 10 nM | ≤ 10 nM | 10 to 100 nM | ≤ 10 nM
C=CC(=O)N1CC[C@@H](N(C)c2cnc(C(N)=O)c(Nc3ccc(C4CCN(C5CCCC5)CC4)cc3)n2)C1 [Example C-85, (R)-5-((1-acryloylpyrrolidin-3-yl)(methyl)amino)-3-(4-(1-cyclopentylpiperidin-4-yl)phenylamino) pyrazine-2-carboxamide] | 100 to 1000 nM | 10 to 100 nM | ≤ 10 nM | 10 to 100 nM | ≤ 10 nM
